Data: ChEMBL document CHEMBL5252544, “Synthesis and evaluation of biological activities of vibsanin A analogs” (Bioorg Med Chem Lett, 2017)
The source made the active and inactive calls. The calls are words filed in the database; no cut-off is given here.

Columns and labels:
[1] = target: T1, Protein kinase C (PKC) (Homo sapiens) (UniProt O94806+P41743+P17252+P05129+Q05655+P05771+Q05513+Q02156+P24723+Q15139+Q04759); experiment: Activation of PKC in human THP-1 cells assessed as increase in ERK phosphorylation at 0.1 to 10 uM incubated for 15 mins by immunoblotting analysis; type: cell-based; settings: dose 0.1-10 µM
THP-1 [2] = experiment: Cytotoxicity against human THP-1 cells by trypan blue staining based microscopic analysis; type: functional, cell-based
THP-1 [3] = experiment: Induction of cell differentiation in human THP-1 cells; type: functional, cell-based
[4] = target: T1, Protein kinase C (PKC) (Homo sapiens); experiment: Activation of PKC in human THP-1 cells assessed as increase in ERK phosphorylation incubated for 15 mins by immunoblotting analysis; type: cell-based; settings: filed as activator, dose 0.1-10 µM
[5] = target: T1, Protein kinase C (PKC) (Homo sapiens); experiment: Activation of PKC in human THP-1 cells assessed as increase in ERK phosphorylation at 10 uM pretreated with PMA for 24 hrs followed by compound addition and measured after 15 mins by immunoblotting analysis; type: cell-based
THP-1 [6] = experiment: Induction of morphological changes in human THP-1 cells assessed as loss of cell circularity at 10 uM measured after 72 hrs by microscopic analysis; type: functional, cell-based
THP-1 [7] = experiment: Induction of monocytic differentiation in human THP-1 cells assessed as increase in cell size at 10 uM measured after 72 hrs by giemsa staining based microscopic analysis; type: functional
THP-1 [8] = experiment: Induction of monocytic differentiation in human THP-1 cells assessed as decrease in nuclear to cytoplasmic ratio at 10 uM measured after 72 hrs by giemsa staining based microscopic analysis; type: functional, cell-based
THP-1 [9] = experiment: Induction of monocytic differentiation in human THP-1 cells assessed as high vacuolated cytoplasm at 10 uM measured after 72 hrs by giemsa staining based microscopic analysis; type: functional, cell-based
HL-60 = experiment: Activation of ERK in human HL-60 cells assessed as increase in cell differentiation; type: cell-based; settings: filed as activator
[10] = target: T1, Protein kinase C (PKC) (Homo sapiens); experiment: Activation of PKC in human THP-1 cells assessed as increase in ERK phosphorylation at 100 nM incubated for 15 mins by immunoblotting analysis; type: cell-based; settings: filed as activator

| SMILES | Activity [1] | Activity [4] | Activity (THP-1 [7]) | Activity (THP-1 [8]) | Activity (THP-1 [9]) | Activity (HL-60) | also measured |
| --- | --- | --- | --- | --- | --- | --- | --- |
| C=C1CC[C@H]2O[C@@]2(C)[C@H](OC(=O)C=C(C)C)/C=C/[C@@](C)(CCC=C(C)C)C[C@H]1O | inactive |  |  |  |  |  |  |
| C=C1CC[C@H]2O[C@@]2(C)[C@H](OC(=O)C=C(C)C)/C=C/[C@@](C)(CCC=C(C)C)CC1=O | inactive |  |  |  |  |  | Activity (THP-1 [2]): Active; Activity (THP-1 [3]): inactive |
| C=C(I)CC[C@H]1O[C@@]1(C)[C@@H](/C=C/[C@](C)(CC=O)CCC=C(C)C)OC(=O)C=C(C)C | inactive |  |  |  |  |  |  |
| CC(C)=CCC[C@]1(C)/C=C/[C@@H](OC(=O)C=C(C)C)[C@]2(C)O[C@@H]2CC/C(C=O)=C\C1 |  | Dose-Dependent Effect | Active | Active | Active | Active | Activity [5]: inactive; Activity (THP-1 [6]): Active |
| CC(C)=CCC[C@]1(C)/C=C/[C@@H](OC(=O)C=C(C)C)[C@]2(C)O[C@@H]2CC/C(CO)=C\C1 |  | Dose-Dependent Effect | Active | Active | Active | Active |  |
| CCCCCCCCCCCCCC(=O)O[C@@H]1[C@@H](C)[C@@]2(O)[C@@H](C=C(CO)C[C@]3(O)C(=O)C(C)=C[C@@H]23)[C@@H]2C(C)(C)[C@]12OC(C)=O |  |  |  |  |  |  | Activity [10]: Active |
